From US8703188B1, “Dispersible tablet” (Azanta A/S, priority 2012, dated 2014)
≈ marks a conversion by molar mass, not a printed value.

Assays:
[1] = Solubility of Nimorazole in water; type: physicochemical
[2] = The Merck Index, 14th Edition; cited from earlier work

## O=[N+]([O-])c1cncn1CCN1CCOCC1 [Nimorazole]
[1]
  solubility: 4910 µg/mL (≈ 21.7 mM)
[2]
  solubility in water: slightly soluble
